# According to PubChem BioAssay AID1259407 (Chemical Carcinogenesis Research Information System (CCRIS), 2018):
# Calls of active or inactive are those of the source. No rule for the calls is given here.
# Test system: CCRIS mutagenicity, Ames/micronucleus/aberration tests
# Assay: CCRIS mutagenicity studies
# [1] = Test System: AMES SALMONELLA TYPHIMURIUM, Strain/Indicator: TA98, Metabolic Activation: NONE, Method: STANDARD PLATE
# [2] = Test System: AMES SALMONELLA TYPHIMURIUM, Strain/Indicator: TA102, Metabolic Activation: NONE, Method: STANDARD PLATE
structure (smiles),measurement,setting,value
[O]=[Cr](=[O])([OH])[O][Cr](=[O])(=[O])[OH],mutagenic call,"Test System: AMES SALMONELLA TYPHIMURIUM, Strain/Indicator: TA92, Metabolic Activation: NONE, Method: STANDARD PLATE",active; positive
same,mutagenic call,"Test System: AMES SALMONELLA TYPHIMURIUM, Strain/Indicator: TA97, Metabolic Activation: HAMSTER, LIVER, S-9, AROCLOR 1254 (30%), Method: PREINCUBATION",active; positive
same,mutagenic call,"Test System: AMES SALMONELLA TYPHIMURIUM, Strain/Indicator: TA97, Metabolic Activation: NONE, Method: PREINCUBATION",active; positive
same,mutagenic call,"Test System: AMES SALMONELLA TYPHIMURIUM, Strain/Indicator: TA97, Metabolic Activation: RAT, LIVER, S-9, AROCLOR 1254 (30%), Method: PREINCUBATION",active; positive
same,mutagenic call,"Test System: AMES SALMONELLA TYPHIMURIUM, Strain/Indicator: TA97A, Metabolic Activation: NONE, Method: MICROSUSPENSION-PREINCUBATION",active; positive
same,mutagenic call,"Test System: AMES SALMONELLA TYPHIMURIUM, Strain/Indicator: TA97A, Metabolic Activation: RAT, LIVER, S-9, AROCLOR 1254, Method: MICROSUSPENSION-PREINCUBATION",active; positive
same,mutagenic call,"Test System: AMES SALMONELLA TYPHIMURIUM, Strain/Indicator: TA98, Metabolic Activation: HAMSTER, LIVER, S-9, AROCLOR 1254 (30%), Method: PREINCUBATION",active; positive
same,mutagenic call,"Test System: AMES SALMONELLA TYPHIMURIUM, Strain/Indicator: TA98, Metabolic Activation: NONE, Method: MICROSUSPENSION-PREINCUBATION",active; positive
same,mutagenic call,"Test System: AMES SALMONELLA TYPHIMURIUM, Strain/Indicator: TA98, Metabolic Activation: NONE, Method: PREINCUBATION",active; positive
same,mutagenic call,[1],active; positive
same,mutagenic call,"Test System: AMES SALMONELLA TYPHIMURIUM, Strain/Indicator: TA98, Metabolic Activation: RAT, LIVER, S-9, AROCLOR 1254 (30%), Method: PREINCUBATION",active; positive
same,mutagenic call,"Test System: AMES SALMONELLA TYPHIMURIUM, Strain/Indicator: TA98, Metabolic Activation: RAT, LIVER, S-9, AROCLOR 1254, Method: MICROSUSPENSION-PREINCUBATION",active; positive
same,mutagenic call,"Test System: AMES SALMONELLA TYPHIMURIUM, Strain/Indicator: TA98, Metabolic Activation: RAT, LIVER, S-9, Method: STANDARD PLATE",active; positive
same,mutagenic call,"Test System: AMES SALMONELLA TYPHIMURIUM, Strain/Indicator: TA100, Metabolic Activation: HAMSTER, LIVER, S-9, AROCLOR 1254 (30%), Method: PREINCUBATION",active; positive
same,mutagenic call,"Test System: AMES SALMONELLA TYPHIMURIUM, Strain/Indicator: TA100, Metabolic Activation: NONE, Method: MICROSUSPENSION-PREINCUBATION",active; positive
same,mutagenic call,"Test System: AMES SALMONELLA TYPHIMURIUM, Strain/Indicator: TA100, Metabolic Activation: NONE, Method: PREINCUBATION",active; positive
same,mutagenic call,"Test System: AMES SALMONELLA TYPHIMURIUM, Strain/Indicator: TA100, Metabolic Activation: RAT, LIVER, S-9, AROCLOR 1254 (30%), Method: PREINCUBATION",active; positive
same,mutagenic call,"Test System: AMES SALMONELLA TYPHIMURIUM, Strain/Indicator: TA100, Metabolic Activation: RAT, LIVER, S-9, AROCLOR 1254, Method: MICROSUSPENSION-PREINCUBATION",active; positive
same,mutagenic call,"Test System: AMES SALMONELLA TYPHIMURIUM, Strain/Indicator: TA100, Metabolic Activation: RAT, LIVER, S-9, AROCLOR 1254, Method: STANDARD PLATE",active; positive
same,mutagenic call,"Test System: AMES SALMONELLA TYPHIMURIUM, Strain/Indicator: TA100, Metabolic Activation: RAT, LIVER, S-9, Method: STANDARD PLATE",active; positive
same,mutagenic call,"Test System: AMES SALMONELLA TYPHIMURIUM, Strain/Indicator: TA102, Metabolic Activation: NONE, Method: FLUCTUATION TEST",active; positive
same,mutagenic call,"Test System: AMES SALMONELLA TYPHIMURIUM, Strain/Indicator: TA102, Metabolic Activation: NONE, Method: MICROSUSPENSION-PREINCUBATION",active; positive
same,mutagenic call,[2],active; positive
same,mutagenic call,"Test System: AMES SALMONELLA TYPHIMURIUM, Strain/Indicator: TA102, Metabolic Activation: RAT, LIVER, S-9, AROCLOR 1254, Method: MICROSUSPENSION-PREINCUBATION",active; positive
same,mutagenic call,"Test System: AMES SALMONELLA TYPHIMURIUM, Strain/Indicator: TA103, Metabolic Activation: NONE, Method: STANDARD PLATE",active; positive
same,mutagenic call,"Test System: AMES SALMONELLA TYPHIMURIUM, Strain/Indicator: TA104, Metabolic Activation: NONE, Method: STANDARD PLATE",active; positive
same,mutagenic call,"Test System: AMES SALMONELLA TYPHIMURIUM, Strain/Indicator: TA1535, Metabolic Activation: NONE, Method: STANDARD PLATE",inactive; negative
same,mutagenic call,"Test System: AMES SALMONELLA TYPHIMURIUM, Strain/Indicator: TA1535, Metabolic Activation: RAT, LIVER, S-9, Method: STANDARD PLATE",inactive; negative
same,mutagenic call,"Test System: AMES SALMONELLA TYPHIMURIUM, Strain/Indicator: TA1537, Metabolic Activation: NONE, Method: STANDARD PLATE",inactive; negative
same,mutagenic call,"Test System: AMES SALMONELLA TYPHIMURIUM, Strain/Indicator: TA1537, Metabolic Activation: RAT, LIVER, S-9, Method: STANDARD PLATE",inactive; negative
same,mutagenic call,"Test System: AMES SALMONELLA TYPHIMURIUM, Strain/Indicator: TA1538, Metabolic Activation: NONE, Method: STANDARD PLATE",inactive; negative
same,mutagenic call,"Test System: AMES SALMONELLA TYPHIMURIUM, Strain/Indicator: TA1538, Metabolic Activation: RAT, LIVER, S-9, Method: STANDARD PLATE",inactive; negative
same,mutagenic call,"Test System: AMES SALMONELLA TYPHIMURIUM, Strain/Indicator: TA2638, Metabolic Activation: NONE, Method: PREINCUBATION",active; positive
same,mutagenic call,"Test System: AMES SALMONELLA TYPHIMURIUM, Strain/Indicator: TA2638, Metabolic Activation: NONE, Method: STANDARD PLATE",active; positive
same,mutagenic call,"Test System: AMES SALMONELLA TYPHIMURIUM, Strain/Indicator: TA2638A, Metabolic Activation: NONE, Method: STANDARD PLATE",active; positive
same,mutagenic call,"Test System: E. COLI, Strain/Indicator: WP2 (PKM101), Metabolic Activation: NONE, Method: STANDARD PLATE",active; positive
same,mutagenic call,"Test System: E. COLI, Strain/Indicator: WP2 UVRA (PKM101), Metabolic Activation: NONE, Method: STANDARD PLATE",active; positive
same,mutagenic call,"Test System: E. COLI, Strain/Indicator: WP2 UVRA, Metabolic Activation: NONE, Method: SPOT TEST",active; positive
same,mutagenic call,"Test System: E. COLI, Strain/Indicator: WP2 UVRA, Metabolic Activation: NONE, Method: STANDARD PLATE",active; positive
same,mutagenic call,"Test System: UDS HUMAN AMNION FL CELL LINE, Strain/Indicator: THY INCORP, Metabolic Activation: NONE, Method: LIQUID SCINTILLATION COUNTING",active; positive
O=[N+]([O-])C1=Cc2cccc3cccc1c23,mutagenic call,[1],active; positive
NC1CCN(c2nc3c(cc2F)c(=O)c(C(=O)O)cn3-c2ccc(F)cc2F)C1 (stereo not drawn),mutagenic call,[2],active; positive
Clc1cnc2ccccc2c1,mutagenic call,"Test System: AMES SALMONELLA TYPHIMURIUM, Strain/Indicator: TA100, Metabolic Activation: RAT, LIVER, S-9, PHENOBARBITAL AND 5,6-BENZOFLAVONE, Method: PREINCUBATION",inactive; negative
